Test results from US6121512A, “Cytochrome P-450 constructs and method of producing herbicide-resistant transgenic plants” (North Carolina State University, priority 1997, dated 2000).

Assays:
[1] = molecular target: T1, soybean CYP71A10 (Glycine max, UniProt O48918); assay: In vitro herbicide metabolism assay and enzyme kinetics, microsomes of yeast expressing CYP71A10; assay type: biochemical
T1 construct: microsomes of yeast W(R) overexpressing endogenous P450 reductase
T1 sequence (O48918 1-513): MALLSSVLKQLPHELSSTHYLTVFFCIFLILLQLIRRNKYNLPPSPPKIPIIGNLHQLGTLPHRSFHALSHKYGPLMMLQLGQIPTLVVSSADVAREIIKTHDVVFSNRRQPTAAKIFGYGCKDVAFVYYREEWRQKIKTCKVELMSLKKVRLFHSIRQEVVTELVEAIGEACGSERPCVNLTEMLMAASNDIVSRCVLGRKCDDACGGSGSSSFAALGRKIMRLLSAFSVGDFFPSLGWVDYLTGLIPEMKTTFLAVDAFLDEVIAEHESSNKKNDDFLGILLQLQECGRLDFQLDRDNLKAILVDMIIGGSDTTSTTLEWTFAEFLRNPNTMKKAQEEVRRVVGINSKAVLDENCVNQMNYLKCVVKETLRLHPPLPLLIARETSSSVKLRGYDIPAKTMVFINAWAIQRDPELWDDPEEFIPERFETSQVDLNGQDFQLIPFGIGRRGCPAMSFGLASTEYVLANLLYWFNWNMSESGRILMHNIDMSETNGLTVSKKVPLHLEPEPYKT
T1 sequence (P16603 1-691 partner): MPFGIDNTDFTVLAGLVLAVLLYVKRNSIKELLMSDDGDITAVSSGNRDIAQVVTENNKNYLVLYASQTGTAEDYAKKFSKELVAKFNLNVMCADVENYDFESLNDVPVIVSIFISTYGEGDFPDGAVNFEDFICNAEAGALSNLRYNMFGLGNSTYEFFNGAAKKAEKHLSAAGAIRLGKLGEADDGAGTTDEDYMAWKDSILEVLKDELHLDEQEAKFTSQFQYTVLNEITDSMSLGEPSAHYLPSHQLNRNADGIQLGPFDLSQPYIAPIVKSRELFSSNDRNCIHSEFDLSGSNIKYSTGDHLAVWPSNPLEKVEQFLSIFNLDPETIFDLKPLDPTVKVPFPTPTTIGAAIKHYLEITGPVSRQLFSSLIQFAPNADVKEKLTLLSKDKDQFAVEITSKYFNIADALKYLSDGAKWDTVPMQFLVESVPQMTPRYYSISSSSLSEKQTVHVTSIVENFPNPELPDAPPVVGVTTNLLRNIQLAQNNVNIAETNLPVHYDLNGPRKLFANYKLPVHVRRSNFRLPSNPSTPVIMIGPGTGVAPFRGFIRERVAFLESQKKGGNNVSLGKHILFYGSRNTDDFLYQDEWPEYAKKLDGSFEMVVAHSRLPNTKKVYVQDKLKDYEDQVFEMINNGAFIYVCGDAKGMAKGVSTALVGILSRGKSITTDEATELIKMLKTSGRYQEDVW
Protocol: Yeast transformation was performed as described by Geitz et al., Nucleic Acids Research 20:1425 (1992). Media composition, culturing conditions, galactose induction, and microsomal preparations were conducted according to Pompon et al., Methods Enzymol. 272:51-64 (1995), using a culture volume of 250 ml. Microsomal protein was quantified spectrophotometrically using the method of Waddell, J. Lab. Clin. Med. 48:311-314 (1956), using bovine albumin as a standard. Dithionite-reduced, carbon monoxide difference spectra was obtained as previously outlined (Estabrook and Werringloer, Methods Ennzmol. 52:212-220 (1978)) using a Shimadzu Recording Spectrophotometer UV-240 (Shimadzu, Kyoto, Japan). P-450 protein concentrations of yeast microsomes were calculated using a millimolar extinction coefficient of 91 (Omura and Sato, J. Biol. Chem., 239:2370-2378 (1964)).
Yeast microsomes enriched for a discrete soybean P-450 isozyme were assayed for their capacity to metabolize the ten herbicides and one insecticide listed in Table 3. The reaction mixtures contained 10,000 DPM (100-200 ng) radiolabeled substrate, 0.75 mM NAPDH, 2.5 mg/ml microsomal protein. Total reaction volumes were adjusted to 150 μl with 50 mM phosphate buffer (pH 7.1). The mixtures were incubated under light for 45 minutes at 27° C., arrested with 50 μl acetone and centriftiged at 14 000×g for 2 minutes. […] Radiolabeled bentazon and imazaquin-containing samples were spotted onto 200 micron Whatman LKC18F silica gel reversed-phase plates. All plates were developed in a benzene/acetone 2:1 (v/v) solvent system with the exception of prosulfaron, developed in toluene/acetone/acetic acid, 75:20:5 (v/v/v), and bentazon and imazaquin, developed in methanol/75 mM sodium acetate 40:60 (v/v). The developed plates were scanned with a Bioscan System 400 imaging scanner (Bioscan, Washington, D.C.), and the production of metabolites was determined based on the chromatographic profiles. For microsomes containing the expressed CYP71A10 enzyme, control experiments were also conducted to measure the NADPH-dependency, and the inhibitory effects of CO. CO treatment of the sample was achieved by gentle bubbling of the gas through the reaction mixture for 2 minutes immediately before the assay was initiated by the addition of NADPH.
Substrate conversion was quantified by a combination of TLC analysis and scintillation spectrometry. The location of the metabolic products on the TLC plates was identified using an imaging scanner, the bands were scraped and analyzed by scintillation spectrometry. The amount of metabolite produced was calculated based on specific activity and scintillation counts. Each assay was repeated at least twice. Km and Vmax values were estimated using nonlinear regression analysis.

[2] = test system: wild-type SR1 plants and pBI121-transformed control tobacco plants; assay: Herbicide tolerance, seeds germinated on herbicide medium, control tobacco; assay type: in vivo, Nicotiana tabacum cv SR1; conditions: 1.0 μM chlortoluron in medium
Protocol: T1 generation seeds from CYP71A10-transformed tobacco and pBI121-transformed control plants were placed onto Petri dishes containing MS salts and linuron (using its commercial formulation LOROX 50 DF) at active ingredient concentrations ranging from 0.25 to 3.0 μM. Chlortoluron was added at 0, 1.0, 5.0 and 10.0 μM concentrations using a 99.5% pure analytical standard. The Petri dishes were incubated in a growth chamber maintaining a constant temperature of 27° C. and a 16/8 hour light/dark cycle. The phytotoxic effects of the treatments were determined visually by comparison to control plants and plants grown in the absence of the herbicide. All treatments were repeated at least twice.

Cc1ccc(NC(=O)N(C)C)cc1Cl [Chlortoluron, chlortoluron]
metabolites formed from the radiolabeled herbicide (TLC) ([1]; 45 minutes at 27° C., 0.75 mM NADPH, 2.5 mg/ml microsomal protein): two (a major and a minor) metabolites | Turnover ([1]; yeast microsomes containing CYP71A10, standard error in parentheses): 0.7 (0.05) min^-1 | growth of the control plants [2]: completely arrested
